# Assay results reported in patent US10669258B2, “3-sulfonyl-5-aminopyridine-2,4-diol APJ agonists” (BRISTOL-MYERS SQUIBB COMPANY, priority 2016, dated 2020).
# Target: T1, human APJ receptor (Homo sapiens, UniProt P35414)
# T1 construct: expressed in transfected cells; host or cells: HEK293
# T1 sequence (P35414 1-380): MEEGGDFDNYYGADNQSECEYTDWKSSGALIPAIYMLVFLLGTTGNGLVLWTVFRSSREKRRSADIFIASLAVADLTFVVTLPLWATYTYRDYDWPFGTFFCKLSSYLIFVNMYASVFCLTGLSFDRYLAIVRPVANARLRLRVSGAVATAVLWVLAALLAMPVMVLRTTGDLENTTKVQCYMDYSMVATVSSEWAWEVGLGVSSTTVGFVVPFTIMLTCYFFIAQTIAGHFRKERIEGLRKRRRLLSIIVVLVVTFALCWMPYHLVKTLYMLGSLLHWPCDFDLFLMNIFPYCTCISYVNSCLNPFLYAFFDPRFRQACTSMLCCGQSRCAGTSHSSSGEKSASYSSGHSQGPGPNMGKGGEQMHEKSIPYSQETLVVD
# Assay: Intracellular cAMP accumulation assay (APJ hcAMP, HTRF)
# Assay type: cell-based
# Conditions: HEK293 cells stably expressing human APJ receptor; inhibition of forskolin-mediated cAMP production; Table 1; read-out: hAPJ cAMP EC50 Potency range
# Summary of the method: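 HEK293 cells stably expressing the receptor (5,000/well) treated with compound plus […] and 2 μM forskolin for 30 min at room temperature; cAMP by HTRF against a cAMP standard curve. EC50 from variable-slope sigmoidal fit; Ymax as % of (Pyr1)apelin-13 inhibition.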
row,EC50 [nM],SMILES
1,0.01 to 10,"CCCCc1nc(O)c(S(=O)(=O)c2ccc(-c3ccccc3C(N)=O)cc2)c(O)c1N(C)c1cccc(C#N)c1 [Example 138, 4′-((6-butyl-5-((3-cyanophenyl)(methyl)amino)-2,4-dihydroxypyridin-3-yl)sulfonyl)-[1,1′-biphenyl]-2-carboxamide]"
2,0.01 to 10,"CCCCc1nc(O)c(S(=O)(=O)c2ccc(-c3ccnc(F)c3C)cc2)c(O)c1N(CC)c1cc(C)cc(C)c1 [Example 136, 6-butyl-5-((3,5-dimethylphenyl)(ethyl)amino)-3-((4-(2-fluoro-3-methylpyridin-4-yl)phenyl)sulfonyl)pyridine-2,4-diol]"
3,0.01 to 10,"CCCCc1nc(O)c(S(=O)(=O)c2ccc(-c3cccnc3C)cc2)c(O)c1N1c2ccccc2CCC1C (stereo not shown) [Example 046, 6-butyl-5-(2-methyl-3,4-dihydroquinolin-1(2H)-yl)-3-((4-(2-methylpyridin-3-yl)phenyl)sulfonyl)pyridine-2,4-diol]"
4,0.01 to 10,"CCCCc1nc(O)c(S(=O)(=O)c2ccc(-c3ccccc3C(=O)NC)cc2)c(O)c1N1CCCOc2ccccc21 [Example 146, 4′-((6-butyl-5-(3,4-dihydrobenzo[b][1,4]oxazepin-5(2H)-yl)-2,4-dihydroxypyridin-3-yl)sulfonyl)-N-methyl-[1,1′-biphenyl]-2-carboxamide]"
5,10 to 100,CCCCc1nc(O)c(S(=O)(=O)c2ccc(-c3cccnc3C)cc2)c(O)c1N1CCC(C)c2ccccc21 (stereo not shown) [Example 042]
6,0.01 to 10,"CCCCc1nc(O)c(S(=O)(=O)c2ccc(-c3ccnc(F)c3C)cc2)c(O)c1N(C)c1ccc(C)cc1 [Example 092, 6-butyl-3-((4-(2-fluoro-3-methylpyridin-4-yl)phenyl)sulfonyl)-5-(methyl(p-tolyl)amino)pyridine-2,4-diol]"
7,0.01 to 10,"CCN(c1ccccc1)c1c(-c2cccc(C)c2)nc(O)c(S(=O)(=O)c2ccc(-c3ccccc3C(=O)N(C)C)cc2)c1O [Example 141, 4′-((5-(ethyl(phenyl)amino)-2,4-dihydroxy-6-(m-tolyl)pyridin-3-yl)sulfonyl)-N,N-dimethyl-[1,1′-biphenyl]-2-carboxamide]"
8,0.01 to 10,"CCN(c1ccccc1)c1c(-c2cnn(C)c2)nc(O)c(S(=O)(=O)c2ccc(-c3cccnc3C)cc2)c1O [Example 150, 5-(ethyl(phenyl)amino)-6-(1-methyl-1H-pyrazol-4-yl)-3-((4-(2-methylpyridin-3-yl)phenyl)sulfonyl)pyri-dine-2,4-diol]"
9,0.01 to 10,"CCN(c1ccccc1)c1c(-c2cnc(C)s2)nc(O)c(S(=O)(=O)c2ccc(-c3cccc(C(=O)NC)c3)cc2)c1O [Example 188, 4′-((5-(ethyl(phenyl)amino)-2,4-dihydroxy-6-(2-methylthiazol-5-yl)pyridin-3-yl)suflonyl)-N-methyl-[1,1′-biphenyl]-3-carboxamide]"
10,10 to 100,"CCCCc1nc(O)c(S(=O)(=O)c2ccc(-c3ccccc3C(=O)N(C)C)cc2)c(O)c1N1CCCCc2ccccc21 [Example 179, 4′-((6-butyl-2,4-dihydroxy-5-(2,3,4,5-tetrahydro-1H-benzo[b]azepin-1-yl)pyridin-3-yl)sulfonyl)-N,N-dimethyl-[1,1′-biphenyl]-2-carboxamide]"
11,0.01 to 10,"CCCCc1nc(O)c(S(=O)(=O)c2ccc(-c3ccncc3C)cc2)c(O)c1N(C)c1ccccc1 [Example 014, 6-butyl-5-(methyl(phenyl)amino)-3-((4-(3-methylpyridin-4-yl)phenyl)sulfonyl)pyridine-2,4-diol]"
12,0.01 to 10,"CCN(c1ccccc1)c1c(-c2cnc(C)s2)nc(O)c(S(=O)(=O)c2ccc(-c3ccccc3C(=O)NC3CC3)cc2)c1O [Example 189, N-cyclopropyl-4′-((5-(ethyl(phenyl)amino)-2,4-dihydroxy-6-(2-methylthiazol-5-yl)pyridin-3-yl)sulfonyl)-[1,1′-biphenyl]-2-carboxamide]"

# Further lines, the compound ahead of its results:
row,SMILES,EC50 [nM]
1,"CCCCc1nc(O)c(S(=O)(=O)c2ccc(-c3ccnc(F)c3C)cc2)c(O)c1N1CCCCc2ccccc21 [Example 180, 6-butyl-3-((4-(2-fluoro-3-methylpyridin-4-yl)phenyl)sulfonyl)-5-(2,3,4,5-tetrahydro-1H-benzo[b]azepin-1-yl)pyridine-2,4-diol]",0.01 to 10
2,"CCN(c1cccc(C#N)c1)c1c(-c2ccn(C)n2)nc(O)c(S(=O)(=O)c2ccc(-c3ccccc3C(=O)N(C)C)cc2)c1O [Example 210, 4′-((5-((3-cyano-phenyl)(ethyl)amino)-2,4-dihydroxy-6-(1-methyl-1H-pyrazol-3-yl)pyridin-3-yl)sulfonyl)-N,N-dimethyl-[1,1′-biphenyl]-2-carboxamide]",0.01 to 10
3,"CNC(=O)c1ccccc1-c1ccc(S(=O)(=O)c2c(O)nc(-c3ccn(C)n3)c(N(c3ccccc3)C(C)C)c2O)cc1 [Example 158, 4′-((2,4-dihydroxy-5-(isopropyl(phen-yl)amino)-6-(1-methyl-1H-pyrazol-3-yl)pyridin-3-yl)sulfonyl)-N-methyl-[1,1′-biphenyl]-2-carboxamide]",0.01 to 10
4,"CCN(c1ccccc1)c1c(-c2ccn(C)n2)nc(O)c(S(=O)(=O)c2ccc(-c3ccnc(F)c3C)cc2)c1O [Example 063, 5-(ethyl(phenyl)amino)-3-((4-(2-fluoro-3-methylpyridin-4-yl)phenyl)sulfonyl)-6-(1-methyl-1H-pyrazol-3-yl)pyridine-2,4-diol]",0.01 to 10
5,"CCN(c1cccc(C#N)c1)c1c(-c2ccn(C)n2)nc(O)c(S(=O)(=O)c2ccc(-c3ccc(F)nc3C)cc2)c1O [Example 213, 3-(ethyl(5-((4-(6-fluoro-2-methylpyridin-3-yl)phenyl)sulfonyl)-4,6-dihydroxy-2-(1-methyl-1H-pyrazol-3-yl)pyridin-3-yl)amino)benzonitrile]",0.01 to 10
6,"CCCCc1nc(O)c(S(=O)(=O)c2ccc(-n3cc(Cl)ccc3=O)cc2)c(O)c1N(CC)c1ccccc1 [Example 082, 1-(4-((6-butyl-5-(ethyl(phenyl)amino)-2,4-dihydroxypyridin-3-yl)sulfonyl)phenyl)-5-chloropyridin-2(1H)-one]",0.01 to 10
7,"CCCCc1nc(O)c(S(=O)(=O)c2ccc(-c3ccccc3C(=O)N(C)C)cc2)c(O)c1N(C)c1ccccc1F [Example 171, 4′-((6-butyl-5-((2-fluorophenyl)(methyl)a-mino)-2,4-dihydroxypyridin-3-yl)sulfonyl)-N,N-dimethyl-[1,1′-biphenyl]-2-carboxamide]",0.01 to 10
8,"CCN(c1ccccc1)c1c(CC2CC2)nc(O)c(S(=O)(=O)c2ccc(-c3ccncc3C)cc2)c1O [Example 052, 6-(cyclopropylmethyl)-5-(ethyl(phenyl)amino)-3-((4-(3-methylpyridin-4-yl)phenyl)sulfonyl)pyridine-2,4-diol]",0.01 to 10
9,"CCCCc1nc(O)c(S(=O)(=O)c2ccc(C3CC3)cc2)c(O)c1N(C)c1ccccc1 [Example 016, 6-butyl-3-((4-cyclopropylphenyl)sulfonyl)-5-(methyl(phenyl)amino)pyridine-2,4-diol]",0.01 to 10
10,"CCCCc1nc(O)c(S(=O)(=O)c2ccc(-c3ccc(F)nc3C)cc2)c(O)c1N(C)c1cccc(Cl)c1 [Example 105, 6-butyl-5-((3-chlorophenyl)(methyl)amino)-3-((4-(6-fluoro-2-methylpyridin-3-yl)phenyl)sulfonyl)pyridine-2,4-diol]",10 to 100
11,"CCCCc1nc(O)c(S(=O)(=O)c2ccc(-c3ccnc(F)c3C)cc2)c(O)c1N(C)c1cccc(C)c1 [Example 091, 6-butyl-3-((4-(2-fluoro-3-methylpyridin-4-yl)phenyl)sulfonyl)-5-(methyl(m-tolyl)amino)pyridine-2,4-diol]",0.01 to 10
12,"CCN(c1ccccc1)c1c(-c2cccc(C)c2)nc(O)c(S(=O)(=O)c2ccc(-c3ccnc(F)c3C)cc2)c1O [Example 122, 5-(ethyl(phenyl)amino)-3-((4-(2-fluoro-3-methylpyridin-4-yl)phenyl)sulfonyl)-6-(m-tolyl)pyridine-2,4-diol]",0.01 to 10

# Same assay, conditions: HEK293 cells stably expressing human APJ receptor; inhibition of forskolin-mediated cAMP production; Table 2; read-out: hAPJ cAMP EC50 Potency range
row,EC50 [nM],SMILES
1,0.01 to 10,"CCN(c1ccccc1)c1c(-c2ccn(C)n2)nc(O)c(C(=O)N2CCC(c3ccccc3F)C2)c1O (stereo not shown) [Example 202, (5-(ethyl(phenyl)amino)-2,4-dihydroxy-6-(1-methyl-1H-pyrazol-3-yl)pyridin-3-yl)(3-(2-fluorophenyl)pyrrolidin-1-yl)methanone]"

# Same assay, conditions: HEK293 cells stably expressing human APJ receptor; inhibition of forskolin-mediated cAMP production; read-out: Human APJ cAMP Potency range
row,EC50 [nM],SMILES
1,0.01 to 10,"CCN(c1ccccc1)c1c(-c2ccn(C)n2)nc(O)c(C(=O)N2CCC(c3ccc(Cl)cn3)C2)c1O (single isomer, unassigned) [Example 199, (3-(5-chloropyridin-2-yl)pyrrolidin-1-yl)(5-(ethyl(phenyl)amino)-2,4-dihydroxy-6-(1-methyl-1H-pyrazol-3-yl)pyridin-3-yl)methanone]"

# Same assay, conditions: hAPJ cAMP EC50 Potency range, HEK293 cells stably expressing human APJ receptor; inhibition of forskolin-mediated cAMP production; Table 1
row,SMILES,EC50 [nM]
1,"CCCCc1nc(O)c(C(=O)N2CCC(c3ccc(Cl)cn3)C2)c(O)c1N(CC)c1ccccc1 (stereo not shown) [Example 076, (6-butyl-5-(ethyl(phenyl)amino)-2,4-dihydroxypyridin-3-yl)(3-(5-chloropyridin-2-yl)pyrrolidin-1-yl)methanone]",10 to 100
2,"CCCCc1nc(O)c(C(=O)N2CCC(c3ncc(Cl)cc3F)C2)c(O)c1N(CC)c1ccccc1 (stereo not shown) [Example 070, (6-butyl-5-(ethyl(phenyl)amino)-2,4-dihydroxypyridin-3-yl)(3-(5-chloro-3-fluoropyridin-2-yl)pyrrolidin-1-yl)methanone]",0.01 to 10
